The record followed here is article PMC3195871 (Biochemical and biophysical research communications, 2011).

For the assay, the target named is T1, ArathEULS3 (Arabidopsis thaliana, UniProt Q945P1).
T1 sequence (Q945P1 2-317): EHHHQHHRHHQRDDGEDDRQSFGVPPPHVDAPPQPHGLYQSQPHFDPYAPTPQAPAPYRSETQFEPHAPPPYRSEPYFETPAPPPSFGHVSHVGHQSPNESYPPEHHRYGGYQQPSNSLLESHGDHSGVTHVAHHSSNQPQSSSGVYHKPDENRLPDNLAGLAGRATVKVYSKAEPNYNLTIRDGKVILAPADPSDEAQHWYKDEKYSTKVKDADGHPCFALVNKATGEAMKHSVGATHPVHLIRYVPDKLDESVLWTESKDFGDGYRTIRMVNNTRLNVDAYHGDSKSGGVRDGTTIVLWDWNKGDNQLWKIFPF
Description: glycan microarray v4.[…], fluorescence. The following applies: glycan immobilised through spacer; relative to glycan with highest signal. It counts as binding.

Regarding `CC(=O)N[C@H]1[C@H](O[C@H]2[C@@H](O)[C@@H](CO)O[C@@H](O[C@H]3[C@H](O[C@@H]4O[C@@H](C)[C@@H](O)[C@@H](O)[C@@H]4O)[C@@H](NC(C)=O)[C@H](O[C@H]4[C@@H](O)[C@@H](CO)O[C@@H](O[C@H]5[C@H](O[C@@H]6O[C@@H](C)[C@@H](O)[C@@H](O)[C@@H]6O)[C@@H](NC(C)=O)[C@H](OCCN)O[C@@H]5CO)[C@@H]4O)O[C@@H]3CO)[C@@H]2O)O[C@H](CO)[C@@H](O[C@@H]2O[C@H](CO)[C@H](O[C@H]3O[C@H](CO)[C@@H](O)[C@H](O)[C@H]3NC(C)=O)[C@H](O)[C@H]2O)[C@@H]1O` [GlcNAcα1-4Galβ1-4GlcNAcβ1-3Galβ1-4(Fucα1-3)GlcNAcβ1-3Galβ1-4(Fucα1-3)GlcNAcβ-Sp0], the “%RFU ^* / ArathEUL” value is 37,2%.

For “Neu5Acα2-3-Galβ1-3(Galβ1-4(Fucα1-3)GlcNAcβ1-6)GalNAc-Sp14”, the “%RFU ^* / ArathEUL” value is 14,8%.

Take `CC(=O)N[C@H]1[C@H](O[C@H]2[C@@H](O)[C@@H](CO)O[C@H](OCCCN)[C@@H]2NC(C)=O)O[C@H](CO)[C@@H](O)[C@@H]1O` [GlcNAcβ1-3GalNAcα-Sp8]: the “%RFU ^* / ArathEUL” value is recorded as 37,0%.

For the molecule “Fucα1-2Galβ1-4(Fucα1-3)GlcNAcβ1-3GalNAcα-Sp14”, the “%RFU ^* / ArathEUL” value is 100,0%.

On to `CC(=O)N[C@H]1[C@H](OCCN)O[C@H](CO)[C@@H](O[C@@H]2O[C@H](CO)[C@H](O)[C@H](O[C@]3(C(=O)O)C[C@H](O)[C@@H](NC(C)=O)[C@H]([C@H](O)[C@H](O)CO)O3)[C@H]2O)[C@@H]1O[C@@H]1O[C@@H](C)[C@@H](O)[C@@H](O)[C@@H]1O` [Neu5Acα2-3Galβ1-4(Fucα1-3)GlcNAcβ-Sp0], for which the “%RFU ^* / ArathEUL” value is reported as 46,6%.

On to `CC(=O)N[C@H]1[C@H](OCCOCCOCCOCCOCCOCCN)O[C@H](CO)[C@@H](O[C@@H]2O[C@H](CO)[C@H](O)[C@H](O)[C@H]2O)[C@@H]1O` [Galβ1-4GlcNAcβ-(OCH2CH2)6NH2], for which the “%RFU ^* / ArathEUL” value is listed as 15,6%.

“GalNAcα1-3(Fucα1-2)Galβ1-4(Fucα1-3)GlcNAcβ1-3GalNAc-Sp14”: the “%RFU ^* / ArathEUL” value is 73,6%.

In the case of “Galα1-3Galβ1-3GlcNAcβ1-2Manα1-3(Galα1-3Galβ1-3GlcNAcβ1-2Manα1-6)Manβ1-4GlcNAcβ1-4GlcNAc-Sp19”, the “%RFU ^* / ArathEUL” value is given as 46,6%.

For “Galβ1-4GlcNAcβ1-2Manα1-3(Galβ1-4GlcNAcβ1-2Manα1-6)Manβ1-4GlcNAcβ1-4GlcNAcβ-Sp12”, the “%RFU ^* / ArathEUL” value is 9,1%.

Galβ1-4(Fucα1-3)GlcNAcβ1-6GalNAc-Sp14: the “%RFU ^* / ArathEUL” value is 8,4%.

Turning to “Fucα1-2Galβ1-4(Fucα1-3)GlcNAcβ1-2Manα1-6(Fucα1-2Galβ1-4(Fucα1-3)GlcNAcβ1-2Manα1-3)Manβ1-4GlcNAcβ1-4(Fucα1-6)GlcNAcβ-6AA”, the “%RFU ^* / ArathEUL” value is on record as 18,9%.

Take “Galβ1-4GlcNAcβ1-4(Galβ1-4GlcNAcβ1-2)Manα1-3(GlcNAcβ1-4)(Galβ1-4GlcNAcβ1-6(Galβ1-4-GlcNAcβ1-2)Manα1-6)Manβ1-4GlcNAcβ1-4GlcNAc-Sp21”: the “%RFU ^* / ArathEUL” value is listed as 67,5%.

Turning to “Galβ1-4(Fucα1-3)GlcNAcβ1-4Galβ1-4(Fucα1-3)GlcNAcβ1-4Galβ1-4(Fucα1-3)GlcNAcβ-Sp0”, the “%RFU ^* / ArathEUL” value is 22,7%.
